{"source": "paper PMC6078311", "about": "“Localization and functional characterization of the pathogenesis-related proteins Rbe1p and Rbt4p in Candida albicans” (PLoS ONE, 2018)", "key": {"Rbt4p": {"biological_target": "T1, Rbt4p (Candida albicans, UniProt Q5AB48)", "T1 construct": "gene RBT4; codon-optimized His-tagged Rbt4p expressed in Escherichia coli", "T1 sequence (Q5AB48 20-358)": "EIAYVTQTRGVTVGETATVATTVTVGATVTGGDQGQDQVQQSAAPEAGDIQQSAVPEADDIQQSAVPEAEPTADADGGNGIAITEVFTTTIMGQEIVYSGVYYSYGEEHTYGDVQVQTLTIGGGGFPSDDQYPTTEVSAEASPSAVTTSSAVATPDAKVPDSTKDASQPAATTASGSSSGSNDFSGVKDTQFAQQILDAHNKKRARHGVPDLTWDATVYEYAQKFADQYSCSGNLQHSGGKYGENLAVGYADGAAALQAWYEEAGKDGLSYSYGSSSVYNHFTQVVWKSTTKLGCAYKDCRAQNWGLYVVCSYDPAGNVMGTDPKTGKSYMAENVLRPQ", "assay": "in vitro [3H]-cholesterol radioligand saturation binding with purified protein; competition with unlabeled cholesterol"}, "Rbe1p": {"biological_target": "T2, Rbe1p (Candida albicans, UniProt Q59ZX3)", "T2 construct": "gene RBE1; codon-optimized His-tagged Rbe1p expressed in Escherichia coli", "T2 sequence (Q59ZX3 20-271)": "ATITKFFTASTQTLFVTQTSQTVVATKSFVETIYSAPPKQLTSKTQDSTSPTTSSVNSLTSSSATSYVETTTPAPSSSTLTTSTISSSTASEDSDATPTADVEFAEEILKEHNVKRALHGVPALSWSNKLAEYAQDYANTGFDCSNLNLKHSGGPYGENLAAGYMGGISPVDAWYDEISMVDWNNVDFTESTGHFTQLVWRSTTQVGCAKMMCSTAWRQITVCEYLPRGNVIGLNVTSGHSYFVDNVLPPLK", "assay": "in vitro [3H]-cholesterol radioligand saturation binding with purified protein; competition with unlabeled cholesterol"}}}
{"smiles": "CC(C)CCC[C@@H](C)[C@H]1CC[C@H]2[C@@H]3CC=C4C[C@@H](O)CC[C@]4(C)[C@H]3CC[C@]12C", "note": "[cholesterol]", "values": [{"measurement": "Kd", "setting": "Rbt4p", "result": "~3.3", "unit": "µM"}, {"measurement": "Kd", "setting": "Rbe1p", "result": "~5.78", "unit": "µM"}]}
